Several values for one entry are separate records, joined by “and”; a condition that tells them apart may be missing. Equal values may be shown once.
How the values were obtained:
APP/PS1 mice [1] = assay: thioflavin S staining of Aβ plaques in cortex and hippocampus (Fig 6a); assay type: in vivo, mouse; conditions: APP/PS1 + N-AS, individual values
Method: Thioflavin S (Sigma-Aldrich) staining was carried out according to previously described procedures. We used 6E10 (mouse, 1:100, Signet, SIG39300), anti-20G10 (mouse, 1:1000, provided by D. R. Howlett, GlaxoSmithKline, Harlow, Essex, UK) for Aβ42, anti-G30 (rabbit, 1:1000, provided by D. R. Howlett) for Aβ40, SMA (mouse, 1:400, Sigma-Aldrich, A2547), AT8 (mouse, 1:500, Thermo Fisher Scientific, MN1020), Caspase-3 (mouse, 1:200, Novus Biologicals, NB100-56708), ac-S565 (rabbit, 1:100), COX2 (mouse, 1:250, Thermo Fisher Scientific, 35-8200), Iba1 (rabbit, 1:500, Wako, 019-19941 and goat, Abcam, ab5076), NeuN (mouse, 1:500, Millipore, MAB177), GFAP (rabbit, 1:500, Dako, N1506 and chicken, 1:500, Abcam, ab4674), and Lamp1 (mouse, 1:200, Abcam, ab24170). The sections were analyzed with a laser-scanning confocal microscope (FV3000; Olympus) or with a BX51 microscope (Olympus). MetaMorph software (Molecular Devices) was used to quantification. Three-dimensional reconstruction of microglia was recorded and analyzed using IMARIS software (Bitplane)[11]. For the analysis of age-dependent microglial COX2^+ CX3CR1^+ cells in WT and APP/PS1 mice, COX2 (rabbit, 1:100, Abcam, ab15191) and CX3CR1 (mouse, 1:100, BioLegend, 149008) antibody were used and the images were acquired on Alexa 488 and APC Channel with performed using Operetta CLS and Analysis Software 4.5 (Perkin-Elmer). […]

APP/PS1 mice [2] = assay: morphometric analysis of Aβ plaques by size (Supplementary Fig 5d); assay type: in vivo, mouse
Method: Thioflavin S (Sigma-Aldrich) staining was carried out according to previously described procedures. We used 6E10 (mouse, 1:100, Signet, SIG39300), anti-20G10 (mouse, 1:1000, provided by D. R. Howlett, GlaxoSmithKline, Harlow, Essex, UK) for Aβ42, anti-G30 (rabbit, 1:1000, provided by D. R. Howlett) for Aβ40, SMA (mouse, 1:400, Sigma-Aldrich, A2547), AT8 (mouse, 1:500, Thermo Fisher Scientific, MN1020), Caspase-3 (mouse, 1:200, Novus Biologicals, NB100-56708), ac-S565 (rabbit, 1:100), COX2 (mouse, 1:250, Thermo Fisher Scientific, 35-8200), Iba1 (rabbit, 1:500, Wako, 019-19941 and goat, Abcam, ab5076), NeuN (mouse, 1:500, Millipore, MAB177), GFAP (rabbit, 1:500, Dako, N1506 and chicken, 1:500, Abcam, ab4674), and Lamp1 (mouse, 1:200, Abcam, ab24170). The sections were analyzed with a laser-scanning confocal microscope (FV3000; Olympus) or with a BX51 microscope (Olympus). MetaMorph software (Molecular Devices) was used to quantification. Three-dimensional reconstruction of microglia was recorded and analyzed using IMARIS software (Bitplane)[11]. For the analysis of age-dependent microglial COX2^+ CX3CR1^+ cells in WT and APP/PS1 mice, COX2 (rabbit, 1:100, Abcam, ab15191) and CX3CR1 (mouse, 1:100, BioLegend, 149008) antibody were used and the images were acquired on Alexa 488 and APC Channel with performed using Operetta CLS and Analysis Software 4.5 (Perkin-Elmer).
Transgenic mouse lines over-expressing the hAPP695swe (APP) and presenilin-1M146V (PS1) mutations were originated from GlaxoSmithKline (Harlow, UK)[32] and maintained as described previously. We purchased 5×FAD mice from Jackson Labs (Stock number. 34840-JAX). Because APP/PS1 and 5xFAD mice show sex differences in disease progression, we used only male mice. To examine possible therapeutic effect of N-AS and aspirin in APP/PS1 mice, the N-AS (30 mg kg^−1, Sigma-Aldrich, 01912) was injected daily s.c. for 8 weeks to 7-months-old APP/PS1 mice until the age of 9 months, and aspirin (2 mg kg^−1, Sigma-Aldrich, A5376)[33] was administrated orally to 7-months-old APP/PS1 mice for 8 weeks. Also, to confirm possible therapeutic efficacy of N-AS in 5×FAD, the N-AS (30 mg kg^−1, Sigma-Aldrich, 01912) was injected daily s.c. for 4 weeks to 3-months-old 5×FAD mice until the age of 4 months. Block randomization method was used to allocate the animals to experimental groups. To eliminate the bias, we were blinded in experimental progress such as data collection and data analysis. Mice were housed at temperature of 22 °C and a 12 h day/12 h night cycle with free access to tap water and food pellets. All protocols were approved by the Kyungpook National University Institutional Animal Care and Use Committee.

neuron = assay: SphK activity in primary cells; assay type: cell-based, C57BL/6 mice; conditions: Ab 10mM, replicates
Method: We confirmed S1P formation through SphK1 enzymatic activity measurements as previously described[11] using a UPLC (Ultra performance liquid chromatography) system (Waters). […] After pre-incubation, 1 mM ATP (Amresco, 0220) was added the mixture, and it was incubated at 37 °C for 1 h. The […] reactions were stopped by adding 53 μl of ethanol, and centrifuged at 15,493×g for 5 min. Thirty microliter of the supernatant was then transferred to a sampling glass vial and 5 μl was applied onto a UPLC system for analysis. S1P formation was followed as phosphorylation of (7-nitro-2-1,3-benzoxadiazol-4-yl)-d-erythro (NBD)-sphingosine (Avanti Polar Lipids) to NBD-S1P. Quantification was achieved by comparison with NBD-S1P (Avanti Polar Lipids) standards.
To confirm the generation and roles of N-AS in neurons, cells from E18 C57BL/6 mice were prepared as previously described. Cortices were dissected and then dissociated followed by incubation in papain (Worthington) at 37 °C for 15 min. […] The human microglia treated with Aβ 1–42 and/or zileuton was incubated with N-AS (2.5 μM, 2 h, Sigma-Aldrich, 01912), and were analyzed for the generation and roles of N-AS.

[3] = APP/PS1 + N-AS, individual values, sFig 5d, in % (unit assumed)

Molecule	area occupied by Aβ plaques (thioflavin S) (APP/PS1 mice [1]; Cortex)	area occupied by Aβ plaques (thioflavin S) (APP/PS1 mice [1]; Hippocampus)	Aβ plaques by size, 25-50mM (APP/PS1 mice [2]; [3])	Aβ plaques by size, <25mM (APP/PS1 mice [2]; [3])	Aβ plaques by size, >50mM (APP/PS1 mice [2]; [3])	medium (25–50 μm) and large-sized (>50 μm) plaques (APP/PS1 mice [2]; N-AS vs vehicle APP/PS1)	number of small (<25 μm) plaques (APP/PS1 mice [2]; N-AS vs vehicle APP/PS1)	SphK activity (Fig 3d) (neuron)
CCCCCCCCCCCCC/C=C/[C@@H](O)[C@H](CO)NC(C)=O [N-AS, N-((2S,3R,E)-1,3-Dihydroxyoctadec-4-en-2-yl)acetamide]	0.5468 and 0.5931 and 0.5106 and 0.2602 and 0.3052 and 0.2223 and 0.2101 and 0.1051	0.3692 and 0.3742 and 0.26 and 0.2921 and 0.4067 and 0.08652 and 0.2333 and 0.1243	2.008 and 5.136 and 3.485 and 2.167 and 5.808 and 4.496 and 5.407 and 0.9834 and 1.041	96.4567 and 90.0482 and 94.697 and 95.0162 and 89.7245 and 91.9498 and 90.3491 and 98.0585 and 97.8053	1.535 and 4.815 and 1.818 and 2.8169 and 4.468 and 3.555 and 4.244 and 0.9581 and 1.154	significant reduction of medium (25–50 μm) and large-sized (>50 μm) plaques	significantly increased number of small (<25 μm) plaques	
Ab: Aβ 1–42 (Invitrogen, 03112) used to induce an AD environment in cells								1.391 and 1.001 and 1.873 and 1.345 and 1.437 and 1.609

— paper PMC7217877, “N-AS-triggered SPMs are direct regulators of microglia in a model of Alzheimer’s disease” (Nature Communications, 2020)
